# In US11331299B2, “Medicinal use of serrulatane diterpenes” (The University of Sydney, priority 2016, dated 2022):
# Read-outs that look alike come from different tables or passages of the source.
# How the values were obtained:
# Sirtuin 7 (h) [1] = target: T1, Sirtuin 7 (h) (Homo sapiens, UniProt Q9NRC8); experiment: Epigenetic enzyme assay, Sirtuins; type: biochemical; settings: Table 10; read-out: Reference IC50
# T1 sequence (Q9NRC8 1-400): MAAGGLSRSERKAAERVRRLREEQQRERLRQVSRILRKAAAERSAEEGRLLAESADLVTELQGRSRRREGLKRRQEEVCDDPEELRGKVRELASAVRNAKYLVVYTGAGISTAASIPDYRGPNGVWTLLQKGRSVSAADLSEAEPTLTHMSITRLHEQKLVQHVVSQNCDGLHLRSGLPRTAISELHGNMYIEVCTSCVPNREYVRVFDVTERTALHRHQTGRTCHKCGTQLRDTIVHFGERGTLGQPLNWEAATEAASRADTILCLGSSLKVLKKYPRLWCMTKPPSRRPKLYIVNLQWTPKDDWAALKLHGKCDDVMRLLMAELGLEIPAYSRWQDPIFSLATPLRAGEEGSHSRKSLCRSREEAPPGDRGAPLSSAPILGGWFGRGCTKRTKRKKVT
# Sirtuin 7 (h) [2] = target: T1, Sirtuin 7 (h); settings: reference compound; fluorogenic HDAC 25 μM; 60 min/37° C.; cited from earlier work
# ASH1L (h) bromodomain [3] = target: T2, ASH1L (h) bromodomain (Homo sapiens, UniProt Q9NR48); experiment: Epigenetic binding assay, Bromodomain
# T2 construct: ASH1L (h) bromodomain
# [4] = target: T3, KAT2A (GCN5L2) (h) bromodomain (Homo sapiens, UniProt Q92830); experiment: Epigenetic binding assay, Bromodomain; settings: Table 4; read-out: Reference IC50
# T3 construct: Bromodomain
# T3 sequence (Q92830 728-832 limits assumed): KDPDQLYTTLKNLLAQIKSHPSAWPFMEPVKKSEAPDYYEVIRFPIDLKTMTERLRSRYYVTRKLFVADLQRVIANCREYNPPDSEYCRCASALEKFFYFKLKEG
# PCAF (h) bromodomain [5] = target: T4, PCAF (h) bromodomain (Homo sapiens, UniProt Q92831); experiment: Epigenetic binding assay, Bromodomain; settings: Table 4; read-out: Reference IC50
# T4 construct: Bromodomain
# T4 sequence (Q92831 723-827 limits assumed): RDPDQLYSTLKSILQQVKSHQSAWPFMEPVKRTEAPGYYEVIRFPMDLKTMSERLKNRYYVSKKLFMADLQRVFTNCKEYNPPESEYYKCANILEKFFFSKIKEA
# ATAD2A (h) bromodomain [6] = target: T5, ATAD2A (h) bromodomain (Homo sapiens, UniProt Q6PL18); experiment: Epigenetic binding assay, Bromodomain; settings: Table 4; read-out: Reference IC50
# T5 construct: Bromodomain
# T5 sequence (Q6PL18 980-1092 limits assumed): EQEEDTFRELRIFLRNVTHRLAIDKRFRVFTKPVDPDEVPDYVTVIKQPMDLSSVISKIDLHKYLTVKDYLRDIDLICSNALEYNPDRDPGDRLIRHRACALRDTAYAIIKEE
# ASH1L (h) bromodomain [7] = target: T2, ASH1L (h) bromodomain; settings: ligand biotin-H4 di acetyl Lys 5/8 75 nM; 30 min/RT; AlphaScreen; read-out: Reference IC50; cited from earlier work
# [8] = target: T3, KAT2A (GCN5L2) (h) bromodomain; settings: ligand biotin-H4 tetra acetyl Lys 5/8/12/16 30 nM; 15 min/RT; AlphaScreen; read-out: Reference IC50; cited from earlier work
# PCAF (h) bromodomain [9] = target: T4, PCAF (h) bromodomain; settings: ligand biotin-H4 tetra acetyl Lys 5/8/12/16 100 nM; 30 min/RT; AlphaScreen; read-out: Reference IC50; cited from earlier work
# ATAD2A (h) bromodomain [10] = target: T5, ATAD2A (h) bromodomain; settings: ligand biotin-H4 tetra acetyl Lys 5/8/12/16 100 nM; 30 min/RT; AlphaScreen; read-out: Reference IC50; cited from earlier work
# BAP1 (h) [11] = target: T6, BAP1 (h) (Homo sapiens, UniProt Q92560); experiment: Epigenetic enzyme assay, Ubiquitin modifying enzymes; type: biochemical; settings: Table 10; read-out: Reference IC50
# T6 sequence (Q92560 1-729): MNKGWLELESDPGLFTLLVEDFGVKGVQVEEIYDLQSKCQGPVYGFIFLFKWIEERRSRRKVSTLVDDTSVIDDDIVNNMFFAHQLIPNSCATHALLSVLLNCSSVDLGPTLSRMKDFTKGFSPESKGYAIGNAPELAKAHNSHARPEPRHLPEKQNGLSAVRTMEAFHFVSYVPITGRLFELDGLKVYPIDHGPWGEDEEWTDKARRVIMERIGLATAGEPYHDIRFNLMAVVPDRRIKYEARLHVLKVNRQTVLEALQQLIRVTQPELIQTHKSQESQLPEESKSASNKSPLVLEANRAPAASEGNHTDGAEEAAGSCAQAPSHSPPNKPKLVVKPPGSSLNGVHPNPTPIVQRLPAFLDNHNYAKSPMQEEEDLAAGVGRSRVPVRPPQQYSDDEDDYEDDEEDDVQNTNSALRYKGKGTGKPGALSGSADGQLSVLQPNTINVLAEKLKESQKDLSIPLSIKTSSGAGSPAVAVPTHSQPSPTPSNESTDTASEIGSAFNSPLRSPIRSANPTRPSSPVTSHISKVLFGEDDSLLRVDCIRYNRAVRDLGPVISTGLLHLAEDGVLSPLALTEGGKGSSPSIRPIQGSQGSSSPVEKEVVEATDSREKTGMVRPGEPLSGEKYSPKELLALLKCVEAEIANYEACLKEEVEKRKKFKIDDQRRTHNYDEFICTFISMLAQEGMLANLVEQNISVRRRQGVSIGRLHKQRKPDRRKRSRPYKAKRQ
# USP 14 (h) [12] = target: T7, USP 14 (h) (Homo sapiens, UniProt P54578); experiment: as above; type: biochemical; settings: Table 10; read-out: Reference IC50
# USP 21 (h) [13] = target: T8, USP 21 (h) (Homo sapiens, UniProt Q9UK80); experiment: as above; type: biochemical; settings: Table 10; read-out: Reference IC50
# T8 sequence (Q9UK80 1-565): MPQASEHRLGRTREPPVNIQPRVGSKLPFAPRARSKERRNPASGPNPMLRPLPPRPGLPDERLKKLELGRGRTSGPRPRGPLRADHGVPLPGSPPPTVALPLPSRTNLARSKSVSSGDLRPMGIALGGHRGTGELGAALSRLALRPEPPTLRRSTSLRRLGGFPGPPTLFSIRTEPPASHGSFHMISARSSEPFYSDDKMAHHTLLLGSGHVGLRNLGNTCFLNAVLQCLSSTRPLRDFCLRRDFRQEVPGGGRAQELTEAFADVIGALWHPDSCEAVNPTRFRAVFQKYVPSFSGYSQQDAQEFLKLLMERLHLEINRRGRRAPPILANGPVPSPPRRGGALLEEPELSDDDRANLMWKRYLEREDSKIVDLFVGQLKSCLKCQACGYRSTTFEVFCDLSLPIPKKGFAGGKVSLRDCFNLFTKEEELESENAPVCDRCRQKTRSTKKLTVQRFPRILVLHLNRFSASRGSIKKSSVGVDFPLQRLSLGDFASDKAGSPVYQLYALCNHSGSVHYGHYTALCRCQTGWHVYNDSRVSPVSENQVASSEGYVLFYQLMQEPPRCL
# USP 7 (h) [14] = target: T9, USP 7 (h) (Homo sapiens, UniProt Q93009); experiment: as above; type: biochemical; settings: Table 10; read-out: Reference IC50
# BAP1 (h) [15] = target: T6, BAP1 (h); settings: reference compound; LanthaScreen DUB substrate 20 nM, 180 min/RT; cited from earlier work
# USP 10 (h) = USP 10 (h) (Homo sapiens, UniProt Q14694); settings: reference compound; LanthaScreen DUB substrate 10 nM, 60 min/22° C.; cited from earlier work
# USP 14 (h) [16] = target: T7, USP 14 (h); settings: reference compound; LanthaScreen DUB substrate 10 nM, 240 min/RT; cited from earlier work
# USP 21 (h) [17] = target: T8, USP 21 (h); settings: reference compound; LanthaScreen DUB substrate 10 nM, 15 min/RT; cited from earlier work
# USP 7 (h) [18] = target: T9, USP 7 (h); settings: reference compound; LanthaScreen DUB substrate 10 nM, 60 min/RT; cited from earlier work
# T9 sequence (Q93009 whole entry): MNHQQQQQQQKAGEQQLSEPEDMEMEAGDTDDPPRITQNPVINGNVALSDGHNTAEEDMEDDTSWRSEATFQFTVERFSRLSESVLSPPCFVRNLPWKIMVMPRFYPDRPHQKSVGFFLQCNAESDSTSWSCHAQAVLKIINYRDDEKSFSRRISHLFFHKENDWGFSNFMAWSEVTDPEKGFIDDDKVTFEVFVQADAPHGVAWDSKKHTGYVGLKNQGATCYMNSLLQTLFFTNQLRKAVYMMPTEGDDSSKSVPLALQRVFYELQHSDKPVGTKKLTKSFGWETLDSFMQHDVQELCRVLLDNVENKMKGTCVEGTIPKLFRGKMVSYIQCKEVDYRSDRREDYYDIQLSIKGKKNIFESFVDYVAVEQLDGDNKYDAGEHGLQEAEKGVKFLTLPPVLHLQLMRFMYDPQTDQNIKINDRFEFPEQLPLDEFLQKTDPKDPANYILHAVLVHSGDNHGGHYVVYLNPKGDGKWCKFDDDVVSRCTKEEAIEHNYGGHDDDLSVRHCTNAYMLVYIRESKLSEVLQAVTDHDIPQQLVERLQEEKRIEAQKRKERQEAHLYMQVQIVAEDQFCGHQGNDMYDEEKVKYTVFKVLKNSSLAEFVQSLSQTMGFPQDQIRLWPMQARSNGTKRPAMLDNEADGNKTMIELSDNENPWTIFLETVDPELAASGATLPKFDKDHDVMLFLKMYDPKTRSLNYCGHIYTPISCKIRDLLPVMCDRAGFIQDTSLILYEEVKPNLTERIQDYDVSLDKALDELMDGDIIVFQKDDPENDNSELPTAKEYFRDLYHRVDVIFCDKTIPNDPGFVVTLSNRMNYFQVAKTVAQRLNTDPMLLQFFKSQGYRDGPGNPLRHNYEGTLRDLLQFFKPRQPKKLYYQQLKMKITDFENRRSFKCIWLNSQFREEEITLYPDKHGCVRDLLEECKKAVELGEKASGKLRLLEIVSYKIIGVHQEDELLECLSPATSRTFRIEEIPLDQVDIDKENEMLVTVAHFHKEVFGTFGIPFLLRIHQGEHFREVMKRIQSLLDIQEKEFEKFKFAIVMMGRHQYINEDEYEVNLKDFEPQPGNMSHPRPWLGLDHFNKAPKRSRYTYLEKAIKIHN
# T7 sequence (P54578 whole entry): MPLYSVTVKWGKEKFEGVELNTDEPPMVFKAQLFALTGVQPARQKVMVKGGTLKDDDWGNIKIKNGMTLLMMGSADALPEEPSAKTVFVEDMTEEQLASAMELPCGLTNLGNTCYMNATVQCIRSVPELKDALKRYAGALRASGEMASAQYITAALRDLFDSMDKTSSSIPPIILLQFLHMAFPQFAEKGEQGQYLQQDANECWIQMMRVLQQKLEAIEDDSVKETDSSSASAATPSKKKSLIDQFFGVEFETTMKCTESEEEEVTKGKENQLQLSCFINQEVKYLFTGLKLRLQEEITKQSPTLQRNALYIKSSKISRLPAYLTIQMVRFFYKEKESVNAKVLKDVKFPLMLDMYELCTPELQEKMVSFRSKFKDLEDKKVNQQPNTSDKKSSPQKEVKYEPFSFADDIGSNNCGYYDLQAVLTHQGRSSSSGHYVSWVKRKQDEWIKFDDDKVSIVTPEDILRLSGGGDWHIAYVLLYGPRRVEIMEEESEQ
# Chain of USP 10 (h) (Q14694 whole entry): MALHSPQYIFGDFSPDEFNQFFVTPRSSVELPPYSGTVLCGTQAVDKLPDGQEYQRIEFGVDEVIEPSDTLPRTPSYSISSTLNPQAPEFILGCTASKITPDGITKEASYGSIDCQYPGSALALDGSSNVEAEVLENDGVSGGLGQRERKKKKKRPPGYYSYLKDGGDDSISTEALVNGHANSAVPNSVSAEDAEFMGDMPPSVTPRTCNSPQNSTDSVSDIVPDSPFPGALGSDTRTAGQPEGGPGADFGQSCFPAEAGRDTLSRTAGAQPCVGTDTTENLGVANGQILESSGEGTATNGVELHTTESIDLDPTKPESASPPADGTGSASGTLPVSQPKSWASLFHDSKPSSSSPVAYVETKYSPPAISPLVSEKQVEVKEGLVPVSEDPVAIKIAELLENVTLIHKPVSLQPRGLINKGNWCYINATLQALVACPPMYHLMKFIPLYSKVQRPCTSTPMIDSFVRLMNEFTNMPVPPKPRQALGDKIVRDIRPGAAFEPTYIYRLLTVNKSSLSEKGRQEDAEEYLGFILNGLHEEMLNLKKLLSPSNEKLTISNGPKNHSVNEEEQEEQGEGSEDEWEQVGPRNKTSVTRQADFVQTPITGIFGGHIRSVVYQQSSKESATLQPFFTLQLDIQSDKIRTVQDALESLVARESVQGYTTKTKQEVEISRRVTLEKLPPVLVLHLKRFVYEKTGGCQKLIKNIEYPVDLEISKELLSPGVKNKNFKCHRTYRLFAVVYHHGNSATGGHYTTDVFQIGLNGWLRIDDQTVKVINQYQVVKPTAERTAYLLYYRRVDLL
compound,measurement,setting,value
"O=C1c2ccccc2C(=O)c2c(NCCc3ccc(O)cc3)ccc(NCCc3ccc(O)cc3)c21 [JFD00244, reference compound]",IC50,Sirtuin 7 (h) [1],1300 µM
same,IC50,Sirtuin 7 (h) [2],1300 µM
"Cc1sc2c(c1C)C(c1ccc(Cl)cc1)=N[C@@H](CC(=O)OC(C)(C)C)c1nnc(C)n1-2 [JQ-1, reference compound]",IC50,"ASH1L (h) bromodomain [3]; Table 4, read-out: Reference IC50",13.8 µM
same,IC50,"ASH1L (h) bromodomain [3]; Table 9, inhibition/concentration-response curve, read-out: IC50",8.7 µM
same,IC50,[4],45 µM
same,IC50,PCAF (h) bromodomain [5],12 µM
same,IC50,ATAD2A (h) bromodomain [6],70 µM
same,IC50,ASH1L (h) bromodomain [7],13.8 µM
same,IC50,[8],45 µM
same,IC50,PCAF (h) bromodomain [9],12 µM
same,IC50,ATAD2A (h) bromodomain [10],70 µM
Ubiquitin Aldehyde,IC50,BAP1 (h) [11],0.23 µM
same,IC50,USP 14 (h) [12],0.004 µM
same,IC50,USP 21 (h) [13],0.17 µM
same,IC50,USP 7 (h) [14],0.11 µM
same,IC50,BAP1 (h) [15],0.23 µM
same,IC50,USP 10 (h),0.23 µM
same,IC50,USP 14 (h) [16],0.004 µM
same,IC50,USP 21 (h) [17],0.17 µM
same,IC50,USP 7 (h) [18],0.11 µM
